# Tested on: 898857-211-R-J1-PDC complex spheroids, growth % test/control
# Assay: Anticancer human tumor 898857-211-R-J1-PDC patient-derived melanoma cell line growth inhibition [RAS]
# Conditions: for viability, T/C: stronger effect = lower value
# In short: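 Agents were tested in combination matrices in half-log decrements from a top concentration at or near clinical Cmax (10 microM if undetermined). Targets were multi-cell spheroids of tumour lines plus HUVEC and MSC stromal cells.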
# 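Also: spheroids exposed to compound for seven days before readout.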
# 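For viability, T/C in this document: 100% = DMSO vehicle control wells.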
compound,measurement,setting,value
O=C(c1ccc(F)c(F)c1Nc1ccc(I)cc1F)N1CC(O)([C@@H]2CCCCN2)C1 + CCn1c(-c2cccnc2C(C)OC)c2c3cc(ccc31)N1CCOC(CC(NC(=O)C(C(C)C)N(C)C(=O)C3(F)CCN(C(=O)C#CC(C)(C)N(C)C)CC3)C(=O)N3CCCC(N3)C(=O)OCC(C)(C)C2)C1,IC50,"curve of first compound, second compound 0.000949 µM",3.75 nM
same,IC50,"curve of first compound, second compound 0.003 µM",3.67 nM
same,IC50,"curve of first compound, second compound 0.00949 µM",4.67 nM
same,IC50,"curve of first compound, second compound 0.03 µM",3.3 nM
same,IC50,"curve of first compound, second compound 0.0949 µM",< 3.16 nM
same,IC50,"curve of first compound, second compound 0.3 µM",< 3.16 nM
same,"viability, T/C","second compound 0.000949 µM, first compound 0.00316 µM",53.5%
same,"viability, T/C","second compound 0.000949 µM, first compound 0.01 µM",36.4%
same,"viability, T/C","second compound 0.000949 µM, first compound 0.0316 µM",29.6%
same,"viability, T/C","second compound 0.000949 µM, first compound 0.1 µM",23.9%
same,"viability, T/C","second compound 0.000949 µM, first compound 0.316 µM",16.6%
same,"viability, T/C","second compound 0.000949 µM, first compound 1 µM",12%
same,"viability, T/C","second compound 0.003 µM, first compound 0.00316 µM",52.9%
same,"viability, T/C","second compound 0.003 µM, first compound 0.01 µM",35.4%
same,"viability, T/C","second compound 0.003 µM, first compound 0.0316 µM",26.5%
same,"viability, T/C","second compound 0.003 µM, first compound 0.1 µM",22.4%
same,"viability, T/C","second compound 0.003 µM, first compound 0.316 µM",15.9%
same,"viability, T/C","second compound 0.003 µM, first compound 1 µM",11.8%
same,"viability, T/C","second compound 0.00949 µM, first compound 0.00316 µM",55.8%
same,"viability, T/C","second compound 0.00949 µM, first compound 0.01 µM",39.3%
same,"viability, T/C","second compound 0.00949 µM, first compound 0.0316 µM",27.3%
same,"viability, T/C","second compound 0.00949 µM, first compound 0.1 µM",21.6%
same,"viability, T/C","second compound 0.00949 µM, first compound 0.316 µM",15.7%
same,"viability, T/C","second compound 0.00949 µM, first compound 1 µM",12.7%
same,"viability, T/C","second compound 0.03 µM, first compound 0.00316 µM",50.5%
same,"viability, T/C","second compound 0.03 µM, first compound 0.01 µM",35.5%
same,"viability, T/C","second compound 0.03 µM, first compound 0.0316 µM",21.8%
same,"viability, T/C","second compound 0.03 µM, first compound 0.1 µM",20.4%
same,"viability, T/C","second compound 0.03 µM, first compound 0.316 µM",15.6%
same,"viability, T/C","second compound 0.03 µM, first compound 1 µM",12.4%
same,"viability, T/C","second compound 0.0949 µM, first compound 0.00316 µM",44.8%
same,"viability, T/C","second compound 0.0949 µM, first compound 0.01 µM",35.4%
same,"viability, T/C","second compound 0.0949 µM, first compound 0.0316 µM",28.3%
same,"viability, T/C","second compound 0.0949 µM, first compound 0.1 µM",18.2%
same,"viability, T/C","second compound 0.0949 µM, first compound 0.316 µM",15.6%
same,"viability, T/C","second compound 0.0949 µM, first compound 1 µM",13.4%
same,"viability, T/C","second compound 0.3 µM, first compound 0.00316 µM",33.8%
same,"viability, T/C","second compound 0.3 µM, first compound 0.01 µM",29.3%
same,"viability, T/C","second compound 0.3 µM, first compound 0.0316 µM",20.9%
same,"viability, T/C","second compound 0.3 µM, first compound 0.1 µM",16.6%
same,"viability, T/C","second compound 0.3 µM, first compound 0.316 µM",13.6%
same,"viability, T/C","second compound 0.3 µM, first compound 1 µM",10.7%
C=CC(=O)N1CCN(c2nc(OCC3CCCN3C)nc3c(F)c(-c4nc(N)cc(C)c4C(F)(F)F)c(Cl)cc23)C(C)C1 (stereo unspecified),"viability, T/C","compound 0.00316 µM, compound 0.0316 µM",121%
same,"viability, T/C","compound 0.00316 µM, compound 0.1 µM",105%
same,"viability, T/C","compound 0.00316 µM, compound 0.316 µM",117%
same,"viability, T/C","compound 0.00316 µM, compound 1 µM",124%
same,"viability, T/C",compound 0.00316 µM,110% [middle of 11 runs]
same,"viability, T/C","compound 0.01 µM, compound 0.00316 µM",98.1%
same,"viability, T/C","compound 0.01 µM, compound 0.0316 µM",108%
same,"viability, T/C","compound 0.01 µM, compound 0.1 µM",112%
same,"viability, T/C","compound 0.01 µM, compound 0.316 µM",116%
same,"viability, T/C","compound 0.01 µM, compound 1 µM",127%
same,"viability, T/C",compound 0.01 µM,108% [middle of 12 runs]
same,"viability, T/C","compound 0.0316 µM, compound 0.00316 µM",102%
same,"viability, T/C","compound 0.0316 µM, compound 0.01 µM",108%
same,"viability, T/C","compound 0.0316 µM, compound 0.1 µM",103%
same,"viability, T/C","compound 0.0316 µM, compound 0.316 µM",115%
same,"viability, T/C","compound 0.0316 µM, compound 1 µM",122%
same,"viability, T/C",compound 0.0316 µM,112% [middle of 12 runs]
same,"viability, T/C","compound 0.1 µM, compound 0.00316 µM",109%
same,"viability, T/C","compound 0.1 µM, compound 0.01 µM",103%
same,"viability, T/C","compound 0.1 µM, compound 0.0316 µM",122%
same,"viability, T/C","compound 0.1 µM, compound 0.316 µM",118%
same,"viability, T/C","compound 0.1 µM, compound 1 µM",127%
same,"viability, T/C",compound 0.1 µM,114% [middle of 12 runs]
same,"viability, T/C","compound 0.316 µM, compound 0.00316 µM",125%
same,"viability, T/C","compound 0.316 µM, compound 0.01 µM",121%
same,"viability, T/C","compound 0.316 µM, compound 0.0316 µM",119%
same,"viability, T/C","compound 0.316 µM, compound 0.1 µM",125%
same,"viability, T/C","compound 0.316 µM, compound 1 µM",127%
same,"viability, T/C",compound 0.316 µM,115% [middle of 12 runs]
same,"viability, T/C","compound 1 µM, compound 0.00316 µM",115%
same,"viability, T/C","compound 1 µM, compound 0.01 µM",126%
same,"viability, T/C","compound 1 µM, compound 0.0316 µM",123%
same,"viability, T/C","compound 1 µM, compound 0.1 µM",112%
same,"viability, T/C","compound 1 µM, compound 0.316 µM",119%
same,"viability, T/C",compound 1 µM,116% [middle of 12 runs]
same,IC50,"compound alone, run of 09/09/2024",> 1000 nM
same,IC50,curve of compound,> 1000 nM
CC(Nc1ccc2c(c1)OCCn1cc(N3C(=O)OCC3C(F)F)nc1-2)C(N)=O (stereo unspecified) + C=CC(=O)N1CCN(c2nc(OCC3CCCN3C)nc3c(F)c(-c4nc(N)cc(C)c4C(F)(F)F)c(Cl)cc23)C(C)C1,IC50,"curve of first compound, second compound 0.00316 µM",> 10000 nM
same,IC50,"curve of first compound, second compound 0.01 µM",> 10000 nM
same,IC50,"curve of first compound, second compound 0.0316 µM",> 10000 nM
same,IC50,"curve of first compound, second compound 0.1 µM",> 10000 nM
same,IC50,"curve of first compound, second compound 0.316 µM",> 10000 nM
same,IC50,"curve of first compound, second compound 1 µM",> 10000 nM
same,"viability, T/C","second compound 0.00316 µM, first compound 0.0316 µM",106%
same,"viability, T/C","second compound 0.00316 µM, first compound 0.1 µM",91.2%
same,"viability, T/C","second compound 0.00316 µM, first compound 0.316 µM",98.7%
same,"viability, T/C","second compound 0.00316 µM, first compound 1 µM",93.9%
same,"viability, T/C","second compound 0.00316 µM, first compound 3.16 µM",94.8%
same,"viability, T/C","second compound 0.00316 µM, first compound 10 µM",72.8%
same,"viability, T/C","second compound 0.01 µM, first compound 0.0316 µM",94.7%
same,"viability, T/C","second compound 0.01 µM, first compound 0.1 µM",103%
same,"viability, T/C","second compound 0.01 µM, first compound 0.316 µM",93.9%
same,"viability, T/C","second compound 0.01 µM, first compound 1 µM",87.6%
same,"viability, T/C","second compound 0.01 µM, first compound 3.16 µM",95.6%
same,"viability, T/C","second compound 0.01 µM, first compound 10 µM",71.4%
same,"viability, T/C","second compound 0.0316 µM, first compound 0.0316 µM",108%
same,"viability, T/C","second compound 0.0316 µM, first compound 0.1 µM",103%
same,"viability, T/C","second compound 0.0316 µM, first compound 0.316 µM",98.7%
same,"viability, T/C","second compound 0.0316 µM, first compound 1 µM",91.9%
same,"viability, T/C","second compound 0.0316 µM, first compound 3.16 µM",81.8%
same,"viability, T/C","second compound 0.0316 µM, first compound 10 µM",75.7%
same,"viability, T/C","second compound 0.1 µM, first compound 0.0316 µM",99.8%
same,"viability, T/C","second compound 0.1 µM, first compound 0.1 µM",105%
same,"viability, T/C","second compound 0.1 µM, first compound 0.316 µM",107%
same,"viability, T/C","second compound 0.1 µM, first compound 1 µM",99.1%
same,"viability, T/C","second compound 0.1 µM, first compound 3.16 µM",87.9%
same,"viability, T/C","second compound 0.1 µM, first compound 10 µM",74.5%
same,"viability, T/C","second compound 0.316 µM, first compound 0.0316 µM",118%
same,"viability, T/C","second compound 0.316 µM, first compound 0.1 µM",120%
same,"viability, T/C","second compound 0.316 µM, first compound 0.316 µM",108%
same,"viability, T/C","second compound 0.316 µM, first compound 1 µM",97%
same,"viability, T/C","second compound 0.316 µM, first compound 3.16 µM",94.4%
same,"viability, T/C","second compound 0.316 µM, first compound 10 µM",70.1%
same,"viability, T/C","second compound 1 µM, first compound 0.0316 µM",113%
same,"viability, T/C","second compound 1 µM, first compound 0.1 µM",124%
same,"viability, T/C","second compound 1 µM, first compound 0.316 µM",102%
same,"viability, T/C","second compound 1 µM, first compound 1 µM",111%
same,"viability, T/C","second compound 1 µM, first compound 3.16 µM",90.1%
same,"viability, T/C","second compound 1 µM, first compound 10 µM",71.4%
